Laboratory results reported in article PMC9304170, “Chloromethyl Glycosides as Versatile Synthons to Prepare Glycosyloxymethyl‐Prodrugs” (Chemistry (Weinheim an Der Bergstrasse, Germany), 2022).
Where “and” joins values, the source holds several entries; their conditions need not be identical. Equal values may be shown once.

How the values were obtained:
[1] = target: T1, Abg (Agrobacterium Sp. β-glucosidase) (Agrobacterium sp., UniProt P12614); assay: Enzymatic hydrolysis at 13 mM studied by quantitative 1H NMR; assay type: biochemical; conditions: 13 mM substrate in D2O, maleate buffer pD 6.5, Abg 1.6 U/mL, 37 °C
T1 sequence (P12614 1-459): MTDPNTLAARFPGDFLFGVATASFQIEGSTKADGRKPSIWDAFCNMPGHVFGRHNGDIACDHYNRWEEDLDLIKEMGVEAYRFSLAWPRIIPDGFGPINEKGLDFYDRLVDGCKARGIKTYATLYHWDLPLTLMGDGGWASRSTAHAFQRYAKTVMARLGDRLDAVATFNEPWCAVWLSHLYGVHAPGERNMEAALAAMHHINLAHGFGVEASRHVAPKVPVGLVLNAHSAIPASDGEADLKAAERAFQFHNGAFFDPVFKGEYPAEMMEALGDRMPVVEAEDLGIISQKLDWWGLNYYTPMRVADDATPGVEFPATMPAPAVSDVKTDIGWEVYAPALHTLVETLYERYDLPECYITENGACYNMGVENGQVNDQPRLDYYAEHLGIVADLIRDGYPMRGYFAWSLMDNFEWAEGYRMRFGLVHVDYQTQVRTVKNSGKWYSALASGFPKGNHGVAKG

[2] = target: T2, Agrobacterium Sp. β-glucosidase (Abg, GH1 family) (Agrobacterium sp., UniProt P12614); assay: Michaelis-Menten kinetics of enzymatic hydrolysis, release of 4-nitrophenol (absorbance at 405 nm); assay type: biochemical; conditions: transglycosylation suggested for rate enhancement
T2 sequence (P12614 1-459): T1 sequence (P12614 1-459)
Protocol: Enzymatic reactions were performed in triplo at pH 6.8 (50 mM final concentration) containing 0.1 % bovine serum albumin at 37 °C.[25] Aliquots of 100 μL were taken at constant time periods and added to 100 μL aq. NaOH (0.1 M) in a 96‐well microtitre plate to quench the enzymatic reaction and ensure maximal absorption of sodium 4‐nitrophenolate as outlined in previous studies.[28] The initial rate (vo) was determined normalized on the ∼0.1 U/mL enzyme concentration and plotted against substrate concentration [S]. Non‐linear regression analysis based on 7–10 concentrations depending on the glycoside, was used to determine the Km and k cat values. k cat values were normalized based on the enzyme concentration. […]
Kinetic evaluation of 4- nitrophenyloxymethyl glycosides. Enzyme reactions were performed in triplicate. Substrate samples (final volume of 1 mL) were prepared by diluting carefully prepared substrate stock solutions with sodium phosphate buffer pH 6.8 (50 mM final concentration) containing 0.1% bovine serum albumin and milliQ to the desired concentration. The samples were equilibrated at 37 °C for at least 5 minutes before the enzyme in 50 mM buffer (2 U per ml, 50 uL) was added. Aliquots of 100 µL were taken at constant time periods and added to 100 µL aq. NaOH (0.1 M) in a 96 well microtiter plate to quench the enzymatic reaction. The absorbance was measured at 405 nm using a Tecan Spark M10 plate reader.
Negative assay controls contained no substrate or no enzyme. Rates of the enzymatic reactions were determined at 7 different substrate concentrations from 0.02 – 1.0 mM. Km and kcat values were determined by nonlinear regression analysis using Graphpad 5.0 (GraphPad Software, San Diego, California USA, www.graphpad.com) for fitting the data. Calibration samples at varying concentration (0.05 – 0.5 mM) were prepared similar to the substrate samples in the enzyme reactions by diluting a carefully prepared 4-nitrophenol stock solution with sodium phosphate buffer pH 6.8 (50 mM final concentration) containing 0.1% bovine serum albumin and milliQ to the desired concentration. […]
(T1 determined as 9.13 sec.) was used. Dynamic measurements were started by heating the sample in the NMR to 37 °C and recording a t0-spectrum. Subsequently Abg (V = 2.05 uL, 0.82 U, 1.64 U/mL) was added to the sample outside of the NMR. The sample was mixed by shaking and quickly reintroduced to the NMR.
The time of enzyme addition was recorded as t0. Spectra were recorded over an appropriate time- scale with the relaxation delay at 3*T1 of the internal standard.
In vivo experiments were performed at the company Charles Rivers (Den Bosch, The Netherlands) in accordance with Dutch law of animal experiments and under approval of the central committee of animal experiments (CCD). Relative and absolute bioavailability may be determined in different animal models and according to different protocols.
The following protocol is typical for determining bioavailability in female Beagle dogs. The animals were deprived from food over a time period of 8 h prior to administration and 2 h after administration of the test molecules. Water was supplied without limitation. On the study day, the animals received test molecule 10h […]
ethanol and 0.9% NaCl + 5% mannitol in water. Blood samples were collected from the jugular vein on the […]

[3] = Control experiments without enzyme (stability in assay buffer); assay type: physicochemical; conditions: 200 μM, 50 mM phosphate buffer pH 6.8, 37 °C, HPLC
[4] = target: T1, Abg (Agrobacterium Sp. β-glucosidase); assay: Enzymatic conversion of glycoside-drug conjugates at 200 μM analyzed by HPLC; assay type: biochemical; conditions: 37 °C; for Product release: 200 μM substrate, 50 mM phosphate buffer pH 6.8, Abg 0.1 U/mL
[5] = In vivo pharmacokinetics study after oral gavage, losartan in blood by LC-MS-MS; design: species or system female Beagle dogs; conditions: 15 μmol/kg oral gavage, Beagle dog; for Intact conjugate in the blood circulation: LC-MS-MS
[6] = pH stability test and stability in formulation; assay type: physicochemical
Protocol: In vivo experiments. […] To investigate the chemical stability towards conditions in the gastrointestinal tract, we performed pH stability test. […] The pharmacokinetic profile of 10 h was studied in a dog‐animal model (adult beagle).

SMILES: O=[N+]([O-])c1ccc(OCO[C@@H]2O[C@H](CO)[C@@H](O)[C@H](O)[C@H]2O)cc1 [5 a, 4‐nitrophenyloxymethyl glucoside]
- Release of 4-nitrophenol followed by 1H NMR (in words) [1]: showed release of 4‐nitrophenol

SMILES: O=[N+]([O-])c1ccc(O[C@@H]2O[C@H](CO)[C@@H](O)[C@H](O)[C@H]2O)cc1 [6 a, reference compound]
- Release of 4-nitrophenol followed by 1H NMR (in words) [1]: release of 4‐nitrophenol
- V0 at high substrate concentration (in words) [2]: followed a horizontal asymptote

SMILES: O=c1[nH]c(=O)n(CO[C@@H]2O[C@H](CO)[C@@H](O)[C@H](O)[C@H]2O)cc1F [10 f]
- Degradation in the control experiment (without enzyme) [3]: no degradation was observed
- Product release ([4]; 0.5 h): 46% and 45.8±5.2%
- Product release ([4]; 1.0 h): 65.2±1.5%
- Product release ([4]; 2.0 h): 77.8±9.7%

SMILES: CCCCc1nc(Cl)c(CO)n1Cc1ccc(-c2ccccc2-c2nnnn2CO[C@@H]2O[C@H](CO)[C@@H](O)[C@H](O)[C@H]2O)cc1 [10 h]
- Maximum concentration (Cmax) of losartan versus dosing of parent (in words) [5]: higher
- Intact conjugate in the blood circulation [5]: no intact conjugate was detected
- Intact conjugate in the blood circulation ([5]; listed as 19): no conjugate was detected
- Stability in formulation ([6]; formulation for oral gavage): stable in formulation
- Chemical stability under acidic conditions ([6]; pH 1–2): stable for 16 h
- Release of the parent drug under acidic conditions ([6]; pH 1–2, 16 h): did not show any release of the parent drug
- Enzymatic hydrolysis by Abg (in words) ([4]; 200 μM, HPLC, in presence of 5 % ethanol): hydrolyzed efficiently
- Product release ([4]; 0.5 h, in presence of 5 % ethanol): 29.3±0.24%
- Product release ([4]; 1.0 h, in presence of 5 % ethanol): 50.4±0.4%
- Product release ([4]; 2.0 h, in presence of 5 % ethanol): 77.2±0.7%
